Each block holds one molecule with its values, some of them ahead of it.
Experiments:
[1] = In vivo pharmacokinetics in rats (gavage and intravenous injection), plasma HPLC-DAD; design: species or system Wistar rats; T1/2ka: unit not given here; conditions: rat
Description: Certain amounts of N-cyclopropyl-3-n-butyl-3-hydroxy-ligusticum lactam and N-cyclopropyl-3-n-butyl-3-hydroxy-phthalide lactam standards were accurately weighed respectively, and dissolved and diluted in the methanol to obtain 2.0 mg/mL of standard stock solutions. Certain standard stock solutions were accurately weighed and mixed respectively, and diluted with methanol to […], 0.7813, 1.5625, 3.1250, 6.2500, 12.500, 25.0000, 50.0000, and 500.0 μg/mL. 20 uL of each sample was analyzed by HPLC system, to sequentially determine N-cyclopropyl-3-n-butyl-3-hydroxy-ligusticum lactam and N-cyclopropyl-3-n-butyl-3-hydroxy-phthalide lactam. The peak area (A) was linearly regressed with the concentration C (g/mL), to obtain the regression equation and linear range, detection limit (LOD), and quantification limit (LOQ).
1.2 Preparation method for test sample: The compound prepared according to Example 7 (the content of N-cyclopropyl-3-n-butyl-3-hydroxy-ligusticum lactam is 92.5%; and the content of the compound N-cyclopropyl-3-n-butyl-3-hydroxy-phthalide lactam is 7.5%) was prepared into the raw stock solution at a concentration of 15 mg/mL by 10% ethanol, 20% Tween 80, and 70% physiological saline. The rats were dosed based on the body weights, with a dosage of 90 mg/Kg by oral administration (by gavage) and a dosage of 40 mg/Kg by intravenous injection.
1.3 Pretreatment method for plasma sample: 0.5 mL of rat whole blood was taken and placed in a 1.5 mL centrifuge tube with 20 uL sodium heparin therein, and centrifuged at a high rotation rate of 4×10^3 r·min^−1 for 5 min. 200 μL of plasma was taken and 800 μL of dichloromethane was added. The mixture was vortexed and centrifuged for 10 min at a rotation rate of […]. The lower layer solution was separate and blown to dryness with nitrogen gas at room temperature, and then reconstituted with 300 μL of methanol. The solution was eluted, filtered, and dried to dryness with nitrogen. After adding 30 μL of methanol, the solution was centrifuged, and 20 μL of the supernatant was used to determine the peak areas by HPLC.
1.4 Determination of pharmacokinetic parameters of phthalide derivatives in rats. Twelve male Wistar rats were randomly divided into two groups, wherein 6 rats were administrated with 40 mg/kg of phthalide derivative (the intravenous injection group (i.v.)). At 0 (pre-dose), 0.167, 0.333, 0.5, 1, 2, 3, 4, and 6 hours after administration, about 500 μL of blood was collected from the Angulus oculis, respectively, and 200 μL of plasma was frozen after anticoagulation treatment and centrifugation. 6 rats in the gavage administration (po) group were administrated by 90 mg/kg of phthalide derivative. At 0 (pre-dose), 0.5, 1, 2, 3, 4, 6, 8, 10, and 12 h after administration, about 500 μL of blood was collected from the Angulus oculis, respectively, and 200 μL of plasma was frozen after anticoagulation treatment and centrifugation. The plasma samples were warmed to the room temperature before pretreatment, and 20 μL of the sample solutions were analyzed by liquid chromatography. The blood drug concentration at each time point was calculated according to the standard curve. The dose-time curve was fitted using DAS2.0 software and the pharmacokinetic parameters were calculated. FIGS. 18 and 19 show the dose-time curves by gavage administration and intravenous injection, respectively.

PC12 cells = assay: Protection against hydrogen peroxide-induced oxidative damage to PC12 nerve cells (MTT); type: cell-based; conditions: for protective effect on PC12 nerve cells against hydrogen peroxide (comparison in words): 2.5-50 μM, 250 μM H2O2, FIG. 16
Description: 2. Method: PC12 cells were cultured as follows. PC12 cells were inoculated into the high-glucose DMEM medium containing 10% fetal bovine serum, penicillin 100 U mL^−1, and streptomycin 100 μg mL^−1, and cultured in the cell incubator at 37° C. under 5% CO2. The medium was changed every other day. The cells were routinely trypsinized and passaged. The cells were used for experiments when they reached 70-80% confluence.
4. Oxidative damage modeling: PC12 cells in the logarithmic growth phase were inoculated into a 96-well cell culture plate at a density of 5×10^3 cells/well. H2O2 was added at different concentrations, and cultured for 4 h. MTT was added according to the above MTT assay, and A value of each well was measured. The H2O2 concentration at which the cell viability was reduced by 50% was finally selected as the modelling concentration.
Therefore, 250 μM was selected as the induction concentration of nerve cell oxidative damage.
5. Grouping and drug treatment: The experimental groups was divided into the normal blank control group, the H2O2 model group (250 μM), concentration groups (2.5 μM, 5.0 μM, 10 μM, 25 μM, 50 μM) for phthalides and their derivatives, and the positive control group (butylphthalide). Each group for phthalides and their derivatives as well as the positive control group were added with 250 μM H2O2, respectively. In the experiment, the solutions of phthalides and their derivatives were first added respectively, so that the final concentrations reached the corresponding values. After 4 h, H2O2 was added, and MTT was added after 24 h. The A value was measured to calculate the cell viability.

[2] = test system: acute cerebral ischemic infarction (MCAO model); assay: Cerebral infarction in acute ischemic stroke, suture-occluded MCAO model; type: in vivo, Wistar rat; conditions: for therapeutic effect on cerebral infarction (words): 3 days after modeling
Description: 1. Experimental animals: […] Wistar male rats (230-250 g), provided by Lanzhou Veterinary Research Institute, Chinese Academy of Agricultural Sciences. 2. […] MCAO model (Middle Cerebral Artery Obstruction in rats) was established through suture-occlusion, and the rats were intraperitoneally injected with 10% chloral hydrate at a dosage of 400 mg/kg for anesthetization. The rats were fixed with supine position method to expose the neck. It was shaved and the skin was cleaned for skin incision. Under gentle operations, the main blood vessels such as left common carotid artery, arteria carotis interna, and arteria carotis externa were separated. The arteria carotis externa was selected to be ligated and disconnected, to avoid the bleeding of the common carotid artery. The common carotid artery was temporarily clamped with an arterial clip. A small opening was cut at the end of arteria carotis […], and used for the placement of the suture-occlusion. The round head of the prepared suture-occlusion was held by the ophthalmic tweezer and gently inserted, with a controlled depth of about 1.8-2.0 cm. The incision was sutured conventionally. After 0.5 h of cerebral ischemia, the suture-occlusion was removed to restore the blood supply. At a certain time after administration, the rats were sacrificed. The brain tissue was stained with 0.5% 2,3,5-triphenyltetrazolium chloride […], and the cerebral infarction area was scanned and calculated, wherein the normal tissue was stained in red and the infarcted tissue was stained in white. 3. Animal grouping: The animals were grouped as follows: the model group (acute ischemia and hypoxia pathological model, administrated with an equal dosage of physiological saline containing 8% Tween-80), the sham operation group (not administrated, as the negative control, administrated with an equal dosage of physiological saline containing 8% Tween-80), the prevention group (administrated 3 days in advance), and treatment group (administrated for 3 days after the blood supply was restored from embolism). 4. Method of administration: […] Results: […] A. Negative model control, infarct area: 30.57%; B. […] C.

[3] = test system: β-amyloid-induced neurotoxicity; conditions: through p38 and PI3K/Akt signaling pathways; cited from earlier work
[4] = male, Wistar, in vivo, iv, 40 mg/kg
[5] = male, Wistar, in vivo, po, 90 mg/kg
[6] = Rattus norvegicus, PC-12, read-out: cell viability
[7] = treatment group, dosed for 3 days after modeling, 40 mg/kg, intraperitoneal injection
[8] = po (gavage), 90 mg/kg of Example 7 mixture

- AUC(0-inf) [1, 4]: 12100 ng·h/mL
- AUC(0-t) [1, 4]: 6020 ng·h/mL
- CL1 [1, 4]: 5445.044 L/h/kg
- CL2 [1, 4]: 20518.475 L/h/kg
- K10 [1, 4]: 1.456 h⁻¹
- K12 [1, 4]: 5.488 h⁻¹
- K21 [1, 4]: 1.17 h⁻¹
- R_AUC(t/∞) [1, 4]: 49.7%
- V1 [1, 4]: 3739.124 L/kg
- V2 [1, 4]: 17537.504 L/kg
- t1/2α [1, 4]: 5.28 min
- t1/2β [1, 4]: 3.213 h
- AUC(0-inf) [1, 5]: 37100 ng·h/mL
- AUC(0-t) [1, 5]: 35300 ng·h/mL
- CL1 [1, 5]: 2719.904 L/h/kg
- CL2 [1, 5]: 1163.858 L/h/kg
- CL3 [1, 5]: 65.258 L/h/kg
- Cmax [1, 5]: 8820 ng/mL
- K10 [1, 5]: 3.763 h⁻¹
- K12 [1, 5]: 1.61 h⁻¹
- K13 [1, 5]: 0.09 h⁻¹
- K21 [1, 5]: 0.684 h⁻¹
- K31 [1, 5]: 0.272 h⁻¹
- Ka [1, 5]: 4.021 h⁻¹
- R_AUC(t/∞) [1, 5]: 95.4%
- T1/2ka [1, 5]: 0.172
- Tmax [1, 5]: 1.2 h
- V1 [1, 5]: 722.758 L/kg
- V2 [1, 5]: 1701.61 L/kg
- V3 [1, 5]: 240.115 L/kg
- t1/2α [1, 5]: 7.32 min
- t1/2β [1, 5]: 1.478 h
- t1/2γ [1, 5]: 2.643 h
Compound: CCCCC1(O)C2=C(C=CCC2)C(=O)N1C1CC1 (racemic) [ligustilide derivative, N-cyclopropyl-3-n-butyl-3-hydroxy-ligusticum lactam]
- protective effect on PC12 nerve cells against hydrogen peroxide (comparison in words) (PC12 cells): strongest protective effect
- viability at 2.5 µM (PC12 cells; [6]): 80%
- viability at 10 µM (PC12 cells; [6]): 95%
- infarct area ([2]; prevention group, pre-dosed for 3 days, modeling, dosed for another 3 days, intraperitoneal injection, model control 30.57%): 22%
- anti-embolic effect ([2]; prevention group, survived animals): relatively weak anti-embolic effects
- therapeutic effect on cerebral infarction (words) ([2]; treatment group, 40 mg/kg, intraperitoneal injection, 40 mg/kg): complete recanalization
- therapeutic effect on cerebral infarction (words) ([2]; treatment group, 40 mg/kg, intraperitoneal injection, listed as N-cyclopropyl-3-n-butyl-3-hydroxy-ligusticum lactam, 40 mg/kg): effectively prevent the occurrence of cerebral infarction
- infarct area, middle portion [2, 7]: 0%
- infarct area, right side, calculated according to the edema removal method [2, 7]: negative value
- infarct area, left side ([2]; treatment group, dosed for 3 days after modeling, 40 mg/kg, intraperitoneal injection, model control 30.57%): 4%

Compound: CCCCC1OC(=O)c2ccccc21 (centres unmarked) [butylphthalide, reference compound]
- cell viability (PC12 cells; drug positive control group, 250 μM H2O2, concentration not given): 68%

Compound: CCC/C=C1\OC(=O)C2=C1CCC=C2 [ligustilide, reference compound]
- protective effect on PC12 nerve cells against hydrogen peroxide (comparison in words) (PC12 cells): stronger than that of n-butenylphthalide
- concentration at which β-amyloid-induced neurotoxicity is inhibited [3]: 1 to 30 µM

Compound: CCCCC1(O)c2ccccc2C(=O)N1C1CC1 (centres unmarked) [n-butenylphthalide derivative, N-cyclopropyl-3-n-butyl-3-hydroxy-phthalide lactam]
- CL1 [1, 8]: 893.769 L/h/kg
- CL2 [1, 8]: 802.825 L/h/kg
- CL3 [1, 8]: -50.58 L/h/kg
- K10 [1, 8]: 1.689 h⁻¹
- K12 [1, 8]: 1.517 h⁻¹
- K13 [1, 8]: -0.096 h⁻¹
- K21 [1, 8]: 0.543 h⁻¹
- K31 [1, 8]: 0.167 h⁻¹
- Ka [1, 8]: 2.425 h⁻¹
- R_AUC(t/∞) [1, 8]: 89.9%
- T1/2ka [1, 8]: 0.286
- Tmax [1, 8]: 1.768 h
- V1 [1, 8]: 529.323 L/kg
- V2 [1, 8]: 1478.868 L/kg
- V3 [1, 8]: -302.598 L/kg
- t1/2α [1, 8]: 12.2 min
- t1/2β [1, 8]: 3.029 h
- t1/2γ [1, 8]: 3.513 h
- protective effect on PC12 nerve cells against hydrogen peroxide (comparison in words) (PC12 cells): almost the same protective effects

— patent US11919857B2, “Phthalide derivative, preparation method and use thereof” (LANZHOU INSTITUTE OF CHEMICAL PHYSICS, CHINESE ACADEMY OF …, priority 2018, dated 2024)
